How the values were obtained:
[1] = system: SOD-3::GFP; assay: SOD-3::GFP oxidative stress reporter in worms; type: in vivo, C. elegans; conditions: worms fed erfK mutant E. coli
Experimental: (§1) C. elegans strains and maintenance: C. elegans strains were grown and maintained on nematode growth media (NGM) plates seeded with the Escherichia coli strain OP50 at 20° C. The following strains were obtained from Caenorhabditis Genetics Center (CGC): N2 Bristol (wild-type control strain), SJ4100: zcIs13 [Phsp-6::gfp] V, SJ4058: zcIs9 [Phsp-60::gfp+lin-15 (+)/V, SJ4197: zcIs39 [Pdve-1::dve-1::gfp] II, SJ4005: zcIs4 [Phsp-4::gfp] V, TJ375: gpIs1 [Phsp-16.2::gfp], AY101: acIs101 [PF35E12.5::gfp+rol-6(su1006)], AU133: agIs17 [Pmyo-2::mCherry+Pirg-1::gfp] IV, CF1553: muIs84 [(pAD76) sod-3p::GFP+rol-6(su1006)]. mai-2 (xm19) was obtained from Dr. R. E. Navarro (Universidad Nacional Autonoma de Mexico).
Chemical supplementation: The NAC (Fisher Scientific, ICN10009825) stock solution (500 mM) was made in ddH2O. For NAC supplementation, NAC solution was added in NGM agar to the final concentration of 50 mM. For iron supplementation, FeCl3 (Sigma, 236489) was dissolved in ddH2O to generate solutions of desired concentration (2 mM, 8 mM and 20 mM). […]
(§2) Microscopy: Analysis of fluorescence was performed under Nomarski optics on a Zeisis Axioplan2 microscope with a Zeiss AxioCam MRm CCD camera. […]
(§3) Quantification and Statistical analysis: ImageJ software was used for quantifying fluorescence intensity of various of reporters. […]

[2] = system: ROS; assay: ROS staining (H2DCFDA) in C. elegans; type: in vivo; conditions: worms fed erfK mutant E. coli
Experimental: ROS measurements in C. elegans: The ROS staining protocol was modified from. Briefly, L4 stage animals were collected and washed three times with M9 buffer to remove the bacteria. Then the worms were transferred into the staining solution (H2DCFDA, 50 uM in M9 buffer) and incubated for 30 min at 20° C. After washing twice with M9 buffer, worms were subjected to microscopic examination.

[3] = system: C. elegans; assay: Developmental rate (growth delay) of worms fed PG mutant E. coli with supplementation; type: in vivo; conditions: supplement added
Experimental: E. coli Keio collection screen: Bacterial peptidoglycan (PG) metabolism-related genes were determined based on the published papers (Table 1) and the PG mutant sub-library was assembled from the Keio E. coli single mutant collection. Mutant bacteria strains, as well as the wild-type control strain BW25113, were cultured overnight in LB medium with 50 μg/ml kanamycin in 96-well plates at 37° C. 100 μl of the overnight E. coli cultures were spotted onto 6 cm NGM plates and dried at room temperature for 1h before use. About 200 synchronized L1 worms were then placed on the seeded NGM plates and cultured at 20° C. Animals were screened after 54-56 hours. Worm developmental rates were determined by vulval development as previously described. To quantify the developmental rate, about 50 animals were scored under Nomarski microscope. To verify the genotypes of the 4 candidate Keio mutants, PCR were performed on each mutant colony and the control BW25113 strain using specific downstream genomic primers together with kanamycin-cassette-specific primers. […]
as §3

[4] = system: Phsp-6::gfp; assay: Mt stress/UPRmt reporter (Phsp-6::gfp) in worms; type: in vivo, C. elegans; conditions: worms fed PG mutant E. coli, supplement added
Experimental: as §1
PG isolation, enzyme treatment and supplementation assays: An adapted method was used to isolate peptidoglycan from bacterial cultures. In brief, bacterial pellets were resuspended in 1/10 vol 1M NaCl solution and boiled at 100° C. in a heating block for 1 h. […]
as §2, §3

[5] = system: C. elegans; assay: Food avoidance behavior assay; type: in vivo; conditions: worms fed PG mutant E. coli, supplement added
Experimental: Food avoidance behavior assay: Food avoidance behavior assay was determined using a method adapted from a published procedure (Kniazeva et al., 2015; Melo and Ruvkun, 2012). Briefly, overnight cultures of wild type and PG mutant E. coli were adjusted to the same OD600 and 20 μl of each culture was seeded on the center of 6 cm NGM plates. The seeded plates were dried at room temperature for 1 hour before use. About 100 synchronized L1 animals were then dropped onto the bacterial lawns and cultured for 45 hours at 20° C. The avoidance index was determined by Noff/on/Ntotal. Each assay was conducted in triplicate.
Heat-killed E. coli preparation and supplementation: We followed an established protocol to prepare heat-killed (HK) E. coli: standard overnight bacterial cultures were concentrated to 1/10 vol and were then heated in a 75° C. water bath for 90 min. For HK-E. coli supplementation, live E. coli and HK-E. coli were mixed at a 1:1 ratio then 20 μl (avoidance behavior assay) or 50 μl (other assays) mixtures were dropped on the NGM plates and dried at room temperature for 10 min before use. About 100-200 synchronized L1 animals were placed on the bacterial lawn to grow at 20° C.
PG isolation, enzyme treatment and supplementation assays: An adapted method was used to isolate peptidoglycan from bacterial cultures. […]

SMILES	increase in SOD-3 level (SOD-3::GFP) [1]	ROS level (H2DCFDA staining) [2]	growth delay (developmental delay) [3]	Mt stress (Phsp-6::gfp) [4]	food avoidance behavior [5]
CC(=O)N[C@@H](CS)C(=O)O [NAC, N-acetyl-L-cysteine]	eliminated	suppressed	significantly suppressed	significantly suppressed	significantly suppressed
[Cl][Fe]([Cl])[Cl] [iron, FeCl3]			could not suppress	could not suppress	

Source: patent US20250295729A1, “NOVEL THERAPEUTIC METHODS OF USING PEPTIDOGLYCAN MUROPEPTIDES TO PROMOTE ATP SYNTHASE ACTIVITY AND MITOCHONDRIAL HOMEOSTASIS AND DEVELOPMENT” (The Regents of the University of Colorado, a body corporate, priority 2021, published 2025)
